Assay results as given in US20120270929A1, “MODULATION OF TTC39 EXPRESSION TO INCREASE HDL” (ISIS Pharmaceuticals, Inc., priority 2009, published 2012).
Oligonucleotides are written 5' to 3', each unit as a sugar letter and its base; * is a phosphorothioate linkage, no mark a phosphodiester; rarer units and linkages stand in square brackets, end groups in braces. Plain capitals give the bases only. e = 2'-O-(2-methoxyethyl) (MOE); [5mC] = 5-methylcytosine; d = 2'-deoxy (DNA)

Tests used:
[1] = Liver function: plasma transaminases (ALT, AST) in C57BL/6 mice; assay type: in vivo, mouse
Method: (§1) Four groups of five mice each were injected twice a week with 25 mg/kg (totaling 50 mg/kg/week) of ISIS 447114, ISIS 447118, ISIS 447143, or ISIS 447144 for 6 weeks. A control group of five mice was injected with phosphate buffered saline (PBS) twice a week for 6 weeks. Plasma samples were obtained before the start of treatment, at week 3 and at week 6. At the end of the treatment period, mice were fasted for 4 hours before being euthanized. Plasma and tissue samples were obtained for further analysis.
To evaluate the impact of ISIS oligonucleotides on the hepatic function of the mice described above, plasma concentrations of transaminases were measured using an automated clinical chemistry analyzer (Olympus Clinical Analyzer). Measurements of alanine transaminase (ALT) and aspartate transaminase (AST) are expressed in IU/L. The results are presented in Tables 19 and 20 and indicate that the oligonucleotides were well tolerated.

murine TTC39B mRNA [2] = assay: In vivo antisense inhibition of murine TTC39B mRNA in liver of C57BL/6 mice; parameters: species or system mouse; conditions: 50 mg/kg/week, 6 weeks, relative to PBS control
Method: as §1
RNA was extracted from liver tissue for real-time PCR analysis of TTC39B using murine primer probe set mTtc39b_LTS00287. […] Results are presented as an average of the percent inhibition of TTC39B, relative to control.

LDLR mRNA = LDLR mRNA levels in C57BL/6 mice; assay type: in vivo, mouse; conditions: 50 mg/kg/week, 6 weeks, compared to PBS control
Method: as §1
The effect of inhibition of TTC39B in mice on cholesterol homeostasis was studied. PCSK9 mRNA levels were measured using the murine primer probe set mPCSK9 (forward sequence ACCGACTTCAACAGCGTGC, designated herein as SEQ ID NO: 106; reverse sequence GGCTGTCACACTTGCTCGC, designated herein as SEQ ID NO: 107, probe sequence AGGATGGGACACGCTTCCACAGACAX, wherein X is a fluorophore, designated herein as SEQ ID NO: 108). LDLR mRNA levels were measured using the murine primer probe set mLDLR (forward sequence GACCGCAGCGAGTACACCA, designated herein as SEQ ID NO: 109; reverse sequence TCACCTCCGTGTCGAGAGC, designated herein as SEQ ID NO: 110, probe sequence […], designated herein as SEQ ID NO: 111). The results are presented as percentage inhibition compared to the PBS control.

apoA1 mRNA = apoA1 mRNA levels in C57BL/6 mice after TTC39B inhibition; assay type: in vivo, mouse; conditions: 50 mg/kg/week, 6 weeks
Method: as §1
(§2) The effect of inhibition of TTC39B in mice on these proteins of reverse cholesterol transport was studied. RNA levels of ABCA1 were measured using murine primer probe set RTS1204 (forward sequence […], designated herein as SEQ ID NO: 97; reverse sequence […], designated herein as SEQ ID NO: 98; and probe sequence […], designated herein as SEQ ID NO: 99). RNA levels of apoA1 were measured using murine primer probe set RTS14737 (forward sequence […], designated herein as SEQ ID NO: 100; reverse sequence […], designated herein as SEQ ID NO: 101; and probe sequence […], designated herein as SEQ ID NO: 102). RNA levels of SRB1 were measured using murine primer probe set mSRB-1 (forward sequence […], designated herein as SEQ ID NO: 103; reverse sequence ATGCGACTTGTCAGGCTGG, designated herein as SEQ ID NO: 104; and probe sequence […], designated herein as SEQ ID NO: 105).

ABCA1 mRNA = ABCA1 mRNA levels in C57BL/6 mice after TTC39B inhibition; assay type: in vivo, mouse; conditions: 50 mg/kg/week, 6 weeks
Method: as §1, §2

murine TTC39B mRNA [3] = assay: Antisense inhibition of murine TTC39B in mouse primary hepatocytes, single dose; assay type: cell-based; conditions: 100 nM, cytofectin, ~24 h, vs untreated control; gapmers targeted to SEQ ID NO: 6
Summary of the method: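 Mouse primary hepatocytes transfected by cytofectin with 100 nM 5-10-5 MOE gapmer (20-mer, phosphorothioate, 5-methylcytosine) for ~24 h. TTC39B mRNA quantified by real-time qPCR, normalized to RIBOGREEN total RNA. Values given as percent inhibition versus untreated cells.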

[4] = Plasma NEFA and 3-HB in C57BL/6 mice; assay type: in vivo, mouse; parameters: 3-HB levels: unit not given here; conditions: for 3-HB % change over the baseline / NEFA % change over the baseline: 6 weeks
Method: as §1
Effect of antisense inhibition of TTC39B on free fatty acid levels Plasma levels of non-esterified fatty acids (NEFA) and 3-hydroxybutyric acid (3-HB), which are the end-products of fatty acid oxidation, were measured using an automated clinical chemistry analyzer (Olympus Clinical Analyzer).

[5] = Week 0 (before treatment), 50 mg/kg/week

Sequence	ALT levels [1, 5] [IU/L]	AST levels [1, 5] [IU/L]	ALT levels ([1]; Week 3, 50 mg/kg/week) [IU/L]	AST levels ([1]; Week 3, 50 mg/kg/week) [IU/L]	ALT levels ([1]; Week 6, 50 mg/kg/week) [IU/L]	AST levels ([1]; Week 6, 50 mg/kg/week) [IU/L]	% inhibition of TTC39B mRNA in liver (murine TTC39B mRNA [2]) [%]	Percent inhibition LDLR mRNA levels (LDLR mRNA) [%]	apoA1 mRNA levels (effect of TTC39B inhibition) (apoA1 mRNA)	abcA1 mRNA levels (effect of TTC39B inhibition) (ABCA1 mRNA)	% inhibition of murine TTC39B mRNA (murine TTC39B mRNA [3]) [%]	3-HB % change over the baseline ([4]; 50 mg/kg/week)	NEFA % change over the baseline ([4]; 50 mg/kg/week)	3-HB levels [4, 5]	NEFA levels [4, 5] [mEq/L]	3-HB levels ([4]; Week 3, 50 mg/kg/week)	NEFA levels ([4]; Week 3, 50 mg/kg/week) [mEq/L]	3-HB levels ([4]; Week 6, 50 mg/kg/week)	NEFA levels ([4]; Week 6, 50 mg/kg/week) [mEq/L]	apoA1 mRNA levels (effect of TTC39B inhibition) (apoA1 mRNA; 50 mg/kg)	also measured
CGGATGATTCTTGCTGGTAA (antisense e[5mC]*eG*eG*eA*eT*dG*dA*dT*dT*d[5mC]*dT*dT*dG*d[5mC]*dT*eG*eG*eT*eA*eA) [ISIS 447114]	46	83	21	29	40	93	49	2	−14	−18	73	+184%	+144%	145	0.67	109	0.49	449	1.52	–	–
GCAGCTCGATTCGGGCATGA (antisense eG*e[5mC]*eA*eG*e[5mC]*dT*d[5mC]*dG*dA*dT*dT*d[5mC]*dG*dG*dG*e[5mC]*eA*eT*eG*eA) [ISIS 447118]	29	88	39	39	50	127	73	6	−23	−2	76	+157%	+90%	158	0.67	111	0.51	406	1.18	–	–
GCCACCAGTGCCTGCTGAGC (antisense eG*e[5mC]*e[5mC]*eA*e[5mC]*d[5mC]*dA*dG*dT*dG*d[5mC]*d[5mC]*dT*dG*d[5mC]*eT*eG*eA*eG*e[5mC]) [ISIS 447143]	32	50	31	31	45	73	85	34	–	−17	74	+41%	+109%	108	0.70	89	0.72	222	1.30	average increase	apoA1 mRNA levels (effect of TTC39B inhibition) (apoA1 mRNA; listed as 447143, 50 mg/kg): +1
TATTTCTATAGCTCATGACA (antisense eT*eA*eT*eT*eT*d[5mC]*dT*dA*dT*dA*dG*d[5mC]*dT*d[5mC]*dA*eT*eG*eA*e[5mC]*eA) [ISIS 447144]	28	67	21	31	69	113	70	2	–	0	69	+152%	+101%	124	0.57	122	0.63	398	1.25	average increase	apoA1 mRNA levels (effect of TTC39B inhibition) (apoA1 mRNA; listed as 447144, 50 mg/kg): +50
